US9040663B2, “Melanocortin receptor-specific peptides” (AstraZeneca AB, priority 2009, dated 2015)
Values joined by “and” are separate entries in the source; they are usually repeats but may differ in a detail not shown here. Equal entries are not always repeated. Where two headings read alike, the source gives them in different places.

Legend:
hMC4-R [1] = target: T1, hMC4-R (Homo sapiens (Human), UniProt P32245); assay: Competitive inhibition binding assay using [I125]-NDP-α-MSH, hMC4-R; conditions: membranes of HEK-293 cells expressing recombinant hMC4-R, read-out: MC4-R Ki
T1 sequence (P32245 whole entry): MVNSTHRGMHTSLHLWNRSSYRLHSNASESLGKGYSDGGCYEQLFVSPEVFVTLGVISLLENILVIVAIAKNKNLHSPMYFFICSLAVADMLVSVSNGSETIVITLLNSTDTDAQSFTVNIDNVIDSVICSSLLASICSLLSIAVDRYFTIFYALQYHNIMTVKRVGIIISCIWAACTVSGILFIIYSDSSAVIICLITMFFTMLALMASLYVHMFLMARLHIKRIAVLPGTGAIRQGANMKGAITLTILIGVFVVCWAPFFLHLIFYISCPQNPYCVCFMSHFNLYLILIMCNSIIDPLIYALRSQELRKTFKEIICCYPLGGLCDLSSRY

MC1-R = assay: Competitive inhibition binding assay using [I125]-NDP-α-MSH, MC1-R; conditions: membranes of B-16 mouse melanoma cells (endogenous MC1-R), in some instances HEK-293 hMC1-R
Outline: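 Radioligand displacement on membranes from B-16 mouse melanoma cells (endogenous MC1-R) or HEK-293 expressing recombinant hMC1-R, with 0.1 nM [I125]-NDP-α-MSH and increasing peptide concentrations in HEPES pH 7.5 buffer, 60 min at 37° C.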

hMC4-R [2] = target: T1, hMC4-R; assay: High and low density hMC4-R functional assay (cAMP, HEK293-T-REx-MC4-R cells); format: cell-based; conditions: for Emax: NDP-α-MSH = 100%
[3] = Food intake and body weight change; format: in vivo, Sprague-Dawley rats; conditions: male rats, 1.0 mg/kg s.c., mean ± SEM; for FI 0-4 h / FI 0-24 h: food intake
Protocol: 7.4 Food Intake and Body Weight Change.
Change in food intake and body weight was evaluated for selected peptides administered by subcutaneous injection route. Male Sprague-Dawley rats were obtained from Hilltop Lab Animals, Inc. (Scottdale, Pa.). Animals were individually housed in conventional polystyrene hanging cages and maintained on a controlled 12 hour on/off light cycle. Water and pelleted food (ProLab RMH 2500, W.F. Fisher & Son Inc.) was provided ad libitum. The rats were dosed subcutaneously with vehicle (3.2% mannitol/50 mM Tris buffer) or selected peptides (1.0 mg/kg). The changes in food intake for the 4 and 24 hour periods after dosing and the changes in body weight for the 24 hour period after dosing were determined. The changes in body weight and food intake for the 48 hour and 72 hour periods after dosing was also measured to determine reversal of changes in body weight and food intake effects back to baseline levels (not shown).

[4] = Induction of penile erection; conditions: male rats; for Total number of PE/rat 0-1 h: mean ± SEM; for % Responders: rats showing at least one erection
Protocol: 7.5 Induction of Penile Erection.
The ability of peptides of the present invention to induce penile erection (PE) in male rats was evaluated with selected peptides. Male Sprague-Dawley rats weighing 250-300 g were kept on a 12 hour on/off light cycle with food and water ad libitum. All behavioral studies were performed between 9 a.m. and 4 p.m.
Corresponding vehicle controls (3.2% mannitol/50 mM Tris buffer) were run in parallel.

[5] = 0.1 ng/mL Doxycycline (low density hMC4-R system)
[6] = 0.1 ng/mL Doxycycline (low density hMC4-R system), read-out: Intrinsic Activity (%)
[7] = 10 ng/mL Doxycycline (high density hMC4-R system), read-out: Intrinsic Activity (%)
[8] = 10 ng/mL Doxycycline (high density hMC4-R system)

Compound | Ki (hMC4-R [1]) | Ki (MC1-R) | EC50 (hMC4-R [2]; [5]) | Emax (hMC4-R [2]; [6]) | Emax (hMC4-R [2]; [7]) | BW change 0-24 h ([3]; body weight) | FI 0-4 h [3] | FI 0-24 h [3] | Total number of PE/rat 0-1 h ([4]; 1.0 mg/kg s.c.) | % Responders ([4]; 1.0 mg/kg s.c.) | Total number of PE/rat 0-1 h ([4]; 3.0 mg/kg s.c.) | % Responders ([4]; 3.0 mg/kg s.c.) | EC50 (hMC4-R [2]; [8]) | Emax (hMC4-R [2]; Table 1, mean values, 0.1 ng/mL Doxycycline (low density hMC4-R system), read-out: Intrinsic activity (%))
CC(=O)N[C@@H](CCCNC(=N)N)C(=O)N[C@H]1CCC(=O)NCCC[C@@H](C(N)=O)NC(=O)[C@H](Cc2c[nH]c3ccccc23)NC(=O)[C@H](CCCNC(=N)N)NC(=O)[C@@H](Cc2ccc(C#N)cc2)NC(=O)[C@H](CC(N)=O)NC1=O [Example 43, Ac-Arg-cyclo(Glu-Asn-D-Phe(4-CN)-Arg-Trp-Orn)-NH2] | 5 nM | 870 nM | 1 nM | 43% | 100% | 0.45 ± 0.35 g | 6.85 ± 0.55 g | 24.44 ± 0.85 g | 1.7 ± 0.36 | 29% | 6.0 ± 0.76 | 100% | – | –
CC(=O)N[C@@H](CCCNC(=N)N)C(=O)N[C@H]1CCC(=O)NCCC[C@@H](C(N)=O)NC(=O)[C@H](Cc2c[nH]c3ccccc23)NC(=O)[C@H](CCCNC(=N)N)NC(=O)[C@@H](Cc2ccc(F)cc2)NC(=O)[C@H](CO)NC1=O [Example 65, Ac-Arg-cyclo(Glu-Ser-D-Phe(4-F)-Arg-Trp-Orn)-NH2] | 5 nM | 43 nM | 1 nM | 58% | 93% | – | – | – | – | – | – | – | 0.085 nM | –
CC(=O)N[C@@H](CCCNC(=N)N)C(=O)N[C@H]1CCC(=O)NCCC[C@@H](C(N)=O)NC(=O)[C@H](Cc2c[nH]c3ccccc23)NC(=O)[C@H](CCCNC(=N)N)NC(=O)[C@@H](Cc2ccccc2F)NC(=O)[C@@H]2CCCN2C1=O [Example 66, Ac-Arg-cyclo(Glu-Pro-D-Phe(2-F)-Arg-Trp-Orn)-NH2] | 6 nM | 95 nM | 5 nM | 32% | 88% | – | – | – | – | – | – | – | 0.265 nM | –
CC(=O)N[C@@H](CCCNC(=N)N)C(=O)N[C@H]1CCC(=O)NCCC[C@@H](C(N)=O)NC(=O)[C@H](Cc2c[nH]c3ccccc23)NC(=O)[C@H](CCCNC(=N)N)NC(=O)[C@@H](Cc2ccc(F)cc2)NC(=O)[C@H](CCS(C)(=O)=O)NC1=O [Example 68, Ac-Arg-cyclo(Glu-Met(O2)-D-Phe(4-F)-Arg-Trp-Orn)-NH2] | 2 nM | 33 nM | 0.85 nM | 55% | 91% | – | – | – | – | – | – | – | 0.075 nM | –
CC(=O)N[C@@H](CCCNC(=N)N)C(=O)N[C@H]1CCC(=O)NCCC[C@@H](C(N)=O)NC(=O)[C@H](Cc2c[nH]c3ccccc23)NC(=O)[C@H](CCCNC(=N)N)NC(=O)[C@@H](Cc2ccc(F)cc2)NC(=O)[C@H](CC(N)=O)NC1=O [Example 69, Ac-Arg-cyclo(Glu-Asn-D-Phe(4-F)-Arg-Trp-Orn)-NH2] | 3 nM | 150 nM | 0.25 nM | 76% | 92% | – | – | – | – | – | – | – | 0.095 nM | –
CC(=O)N[C@@H](CCCNC(=N)N)C(=O)N[C@H]1CCCNC(=O)CC[C@@H](C(N)=O)NC(=O)[C@H](Cc2c[nH]c3ccccc23)NC(=O)[C@H](CCCNC(=N)N)NC(=O)[C@@H](Cc2ccccc2F)NC(=O)[C@H](CC(N)=O)NC1=O [Example 71, Ac-Arg-cyclo(Orn-Asn-D-Phe(2-F)-Arg-Trp-Glu)-NH2] | 9 nM | 335 nM | 1 nM | 86% | 91% | – | – | – | – | – | – | – | 0.085 nM | –
CC(=O)N[C@@H](CCCNC(=N)N)C(=O)N[C@H]1CCCNC(=O)CC[C@@H](C(N)=O)NC(=O)[C@H](Cc2c[nH]c3ccccc23)NC(=O)[C@H](CCCNC(=N)N)NC(=O)[C@@H](Cc2ccccc2C)NC(=O)[C@H](CC(N)=O)NC1=O [Example 74, Ac-Arg-cyclo(Orn-Asn-D-Phe(2-Me)-Arg-Trp-Glu)-NH2] | 5 nM | 405 nM | – | 68% | 100% | – | – | – | – | – | – | – | – | –
CC(=O)N[C@@H](CCCNC(=N)N)C(=O)N[C@H]1CCCNC(=O)CC[C@@H](C(N)=O)NC(=O)[C@H](Cc2c[nH]c3ccccc23)NC(=O)[C@H](CCCNC(=N)N)NC(=O)[C@@H](Cc2ccc(F)c(F)c2)NC(=O)[C@H](CC(N)=O)NC1=O [Example 75, Ac-Arg-cyclo(Orn-Asn-D-Phe(3,4-diF)-Arg-Trp-Glu)-NH2] | 3 nM | 190 nM | 0.65 nM | 43% | 87% | – | – | – | – | – | – | – | 0.125 nM | –
CC(=O)N[C@@H](CCCNC(=N)N)C(=O)N[C@H]1CCC(=O)NCCC[C@@H](C(N)=O)NC(=O)[C@H](Cc2c[nH]c3ccccc23)NC(=O)[C@H](CCCNC(=N)N)NC(=O)[C@@H](Cc2cc(F)cc(F)c2)NC(=O)[C@H](CC(N)=O)NC1=O [Example 76, Ac-Arg-cyclo(Glu-Asn-D-Phe(3,4-diF)-Arg-Trp-Orn)-NH2] | 20 nM | 260 nM | 3 nM | 53% | 85% | – | – | – | – | – | – | – | 0.135 nM | –
CC(=O)N[C@H](CCCNC(=N)N)C(=O)N[C@H]1CC(=O)NCCCC[C@@H](C(N)=O)NC(=O)[C@H](Cc2c[nH]c3ccccc23)NC(=O)[C@H](CCCNC(=N)N)NC(=O)[C@@H](Cc2ccccc2Cl)NC(=O)[C@H](CCC(N)=O)NC1=O [Example 79, Ac-D-Arg-cyclo(Asp-Gln-D-Phe(2-Cl)-Arg-Trp-Lys)-NH2] | 10 nM | 395 nM | 4 nM | 48% | 85% | – | – | – | – | – | – | – | 0.2 nM | –
CC(=O)N[C@H](CCCNC(=N)N)C(=O)N[C@H]1CC(=O)NCCCC[C@@H](C(N)=O)NC(=O)[C@H](Cc2c[nH]c3ccccc23)NC(=O)[C@H](CCCNC(=N)N)NC(=O)[C@@H](Cc2cccc(Cl)c2)NC(=O)[C@H](CCC(N)=O)NC1=O [Example 80, Ac-D-Arg-cyclo(Asp-Gln-D-Phe(3-Cl)-Arg-Trp-Lys)-NH2] | 7 nM | 1750 nM | 6 nM | 13% | 86% | – | – | – | – | – | – | – | 0.65 nM | –
CC(=O)N[C@@H](CCCNC(=N)N)C(=O)N[C@H]1CCC(=O)NCCC[C@@H](C(N)=O)NC(=O)[C@H](Cc2c[nH]c3ccccc23)NC(=O)[C@H](CCCNC(=N)N)NC(=O)[C@@H](Cc2ccccc2F)NC(=O)[C@H](CC(N)=O)NC1=O [Example 84, Ac-Arg-cyclo(Glu-Asn-D-Phe(2-Cl)-Arg-Trp-Orn)-NH2] | 7 nM | 245 nM | – | 78% | 97% | – | – | – | – | – | – | – | 0.09 nM | –
CC(=O)N[C@@H](CCCNC(=N)N)C(=O)N[C@H]1CCC(=O)NCCC[C@@H](C(N)=O)NC(=O)[C@H](Cc2c[nH]c3ccccc23)NC(=O)[C@H](CCCNC(=N)N)NC(=O)[C@@H](Cc2ccccc2C)NC(=O)[C@H](CCC(N)=O)NC1=O [Example 110, Ac-Arg-cyclo(Glu-Gln-D-Phe(2-Me)-Arg-Trp-Orn)-NH2] | 5 nM | 105 nM | 0.6 nM | 84% | 105% | – | – | – | – | – | – | – | 0.06 nM | –
CC(=O)N[C@@H](CCCNC(=N)N)C(=O)N[C@H]1CCC(=O)NCCC[C@@H](C(N)=O)NC(=O)[C@H](Cc2c[nH]c3ccccc23)NC(=O)[C@H](CCCNC(=N)N)NC(=O)[C@@H](Cc2ccccc2C(F)(F)F)NC(=O)[C@H](CCC(N)=O)NC1=O [Example 114, Ac-Arg-cyclo(Glu-Gln-D-Phe(2-CF3)-Arg-Trp-Orn)-NH2] | 8 nM | 93 nM | 1 nM | 73% | 117% | – | – | – | – | – | – | – | – | –
CC(=O)N[C@@H](CCCNC(=N)N)C(=O)N[C@H]1CCCNC(=O)CC[C@@H](C(N)=O)NC(=O)[C@H](Cc2c[nH]c3ccccc23)NC(=O)[C@H](CCCNC(=N)N)NC(=O)[C@@H](Cc2ccccc2C(F)(F)F)NC(=O)[C@H](CCC(N)=O)NC1=O [Example 115, Ac-Arg-cyclo(Orn-Gln-D-Phe(2-CF3)-Arg-Trp-Glu)-NH2] | 4 nM | 235 nM | 0.8 nM | 54% | 108% | – | – | – | – | – | – | – | 0.17 nM | –
CC(=O)N[C@@H](CCCNC(=N)N)C(=O)N[C@H]1CCC(=O)NCCC[C@@H](C(=O)O)NC(=O)[C@H](Cc2c[nH]c3ccccc23)NC(=O)[C@H](CCCNC(=N)N)NC(=O)[C@@H](Cc2ccccc2)NC(=O)[C@H](CCN)NC1=O [Ref Ex 2, Ac-Arg-cyclo(Glu-Dab-D-Phe-Arg-Trp-Orn)-OH, reference compound] | – | – | – | – | – | – | 3.17 ± 0.42 g and 4.41 ± 0.48 g and 2.80 ± 0.27 g | 19.98 ± 0.60 g and 20.84 ± 1.01 g and 21.81 ± 1.04 g | – | – | 6.0 ± 0.44 | 100% | – | 92%
